Assay results taken from US9738600B2, “ROR gamma (RORγ) modulators” (LEAD PHARMA CEL MODELS IP B.V., priority 2013, dated 2017).

Biological target: T1, RORγ (Homo sapiens, UniProt P51449)
T1 sequence (P51449 269-508 limits assumed): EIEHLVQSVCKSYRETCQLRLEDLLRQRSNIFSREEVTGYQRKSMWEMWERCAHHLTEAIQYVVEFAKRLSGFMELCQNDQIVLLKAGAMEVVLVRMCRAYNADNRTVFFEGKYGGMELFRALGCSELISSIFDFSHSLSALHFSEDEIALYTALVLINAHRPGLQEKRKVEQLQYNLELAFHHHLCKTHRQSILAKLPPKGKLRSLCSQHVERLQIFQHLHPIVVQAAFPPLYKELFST
Experiment: RORγ GAL4 reporter gene assay
Conditions: mean pIC50, inhibition of RORγ (GAL4-RORγ-LBD) in 293FT cells, luciferase readout, overnight incubation
Excerpt: The RORγ ligand-binding domain (LBD) was fused to the yeast GAL4 DNA binding domain (DBD) and placed under the control of the human cytomegalovirus (CMV) immediate early promoter, using expression vector pFN26A (Promega) and standard recombinant DNA cloning methods.
To monitor the inhibitory effect of compounds on RORγ, a transcriptional reporter construct was used. The pGL4.35 vector (Promega) contains nine copies of the GAL4 Upstream Activator Sequence (UAS). This sequence drives the transcription of the luciferase reporter gene luc2P in response to binding of a fusion protein containing the GAL4 DNA binding domain, as for example expressed by the GAL4-RORγ-LBD and GAL4-VP16 expression vectors described above.
The day after transfection, cells were plated into 96 well plates, test compound was added and the plates were incubated overnight. Subsequently, the firefly luciferase activity was quantified using luciferase detection reagent and luminescence readout.
1500 μL of this reagent mixture was added to 5 μg of GAL4 fusion protein expression vector and 5 μg of the transcriptional reporter construct, and incubated at RT for 20 minutes.
Subsequently, the cells were washed with Phosphate Buffered Saline (PBS) (Lonza), after which the PBS was removed. To dissociate the cells, 1 ml of TrypLE Express (Invitrogen) was added to the flask, followed by incubation at RT until the cells visually started to detach. Cells were collected in 5 mL of assay medium (DMEM culture medium (Lonza), 10% dialyzed FBS (Invitrogen) and Pen/Strep (Lonza)) to achieve a single cell suspension. 10×10^6 cells were spun down and re-suspended in 10 mL of assay medium. Subsequently, the cell suspension was added to the transfection mix tube, and then transferred as a whole to a T75 flask (Greiner), followed by overnight (16-24 hours) incubation at 37° C. and 5% CO2.
For compound screening, the cells were harvested (as described above) and counted. […] 80 μL of cell suspension (60,000 cells) was plated per well into a white, flat bottom, tissue culture treated, 96 well screening plates (Greiner).
Test compounds were diluted, starting from a 10 mM dimethylsulfoxide (DMSO) stock solution, to serial dilutions in DMSO at 500× the final test concentration. Subsequently, these solutions were diluted to 5× the final test concentration in two 10-fold-dilution steps in assay medium. The final DMSO concentration of the 5× test compound solution was 1%. 20 μL of the 5× test compound solution was added to each test well of the 96 well plate previously plated with 80 μl cell suspension, resulting in the final test concentration with 0.2% DMSO.
The plates were incubated overnight (16-24 hours) at 37° C. and 5% CO2.
For the luciferase readout, the luciferase reagent (Britelite Plus, Perkin Elmer) was brought to RT. […] The luciferase luminescence signal was measured using a Wallac Victor Microplate Reader (Perkin Elmer).
The half maximum inhibitory concentration (IC50) values for the test compounds were calculated from the luciferase signal using GraphPad Prism software (GraphPad Software).

Row | SMILES | IC50
1 | Cc1cc(NC(=O)Cc2cccc(S(=O)(=O)NC3CC3)c2)ccc1C(O)(C(F)(F)F)C(F)(F)F [Example 36, 2-(3-(N-cyclopropylsulfamoyl)phenyl)-N-(4-(1,1,1,3,3,3-hexafluoro-2-hydroxypropan-2-yl)-3-methylphenyl)acetamide] | ≤ 1000 nM
2 | CC(O)(c1ccc(NC(=O)Cc2ccc(S(=O)(=O)CC3CC3)cc2)cc1)C(F)(F)F (stereo not drawn) [Example 71, 2-(4-((cyclopropylmethyl)sulfonyl)phenyl)-N-(4-(1,1,1-trifluoro-2-hydroxypropan-2-yl)phenyl)acetamide] | ≤ 100 nM
3 | O=C(Cc1ccc(S(=O)(=O)CC2CC2)cc1)Nc1ccc(C(O)(C2CCCC2)C(F)(F)F)cc1 (stereo not drawn) [Example 75, N-(4-(1-cyclopentyl-2,2,2-trifluoro-1-hydroxyethyl)phenyl)-2-(4-((cyclopropylmethyl)sulfonyl)phenyl)acetamide] | ≤ 10 nM
4 | CCOC(c1ccc(NC(=O)Cc2ccc(S(=O)(=O)CC)cc2)cc1)(C(F)(F)F)C(F)(F)F [Example 48, N-(4-(2-ethoxy-1,1,1,3,3,3-hexafluoropropan-2-yl)phenyl)-2-(4-(ethylsulfonyl)phenyl)acetamide] | ≤ 1000 nM
5 | CCS(=O)(=O)c1ccc(CC(=O)Nc2ccc(C(O)(C(F)(F)F)C(F)(F)F)c(C)c2)cc1 [Example 29, 2-(4-(ethylsulfonyl)phenyl)-N-(4-(1,1,1,3,3,3-hexafluoro-2-hydroxypropan-2-yl)-3-methylphenyl)acetamide] | ≤ 100 nM
6 | O=C(Cc1ccc(S(=O)(=O)CC2CC2)cc1)Nc1ccc(C(O)(CC2CCCCC2)C(F)(F)F)cc1 (stereo not drawn) [Example 69, N-(4-(3-cyclohexyl-1,1,1-trifluoro-2-hydroxypropan-2-yl)phenyl)-2-(4-((cyclopropylmethyl)sulfonyl)phenyl)acetamide] | ≤ 100 nM
7 | O=C(Cc1ccc(S(=O)(=O)CC2CC2)cc1)Nc1ccc(C(O)(C2CC2)C(F)(F)F)cc1 (stereo not drawn) [Example 67, N-(4-(1-cyclopropyl-2,2,2-trifluoro-1-hydroxyethyl)phenyl)-2-(4-((cyclopropylmethyl)sulfonyl)phenyl)acetamide] | ≤ 100 nM
8 | CCS(=O)(=O)c1ccc(CC(=O)Nc2ccc(C(O)(C(F)(F)F)C(F)(F)F)c(F)c2C)cc1 [Example 15, 2-(4-(ethylsulfonyl)phenyl)-N-(3-fluoro-4-(1,1,1,3,3,3-hexafluoro-2-hydroxypropan-2-yl)-2-methylphenyl)acetamide] | ≤ 1000 nM
9 | CCCS(=O)(=O)c1ccc(CC(=O)Nc2ccc(C(O)(C(F)(F)F)C(F)(F)F)cc2)cc1 [Example 4, N-(4-(1,1,1,3,3,3-hexafluoro-2-hydroxypropan-2-yl)phenyl)-2-(4-(propylsulfonyl)phenyl)acetamide] | ≤ 1000 nM
10 | CCS(=O)(=O)c1ccc(CC(=O)Nc2ccc(C(O)(CC(C)C)C(F)(F)F)cc2)cc1 (stereo not drawn) [Example 66, 2-(4-(ethylsulfonyl)phenyl)-N-(4-(1,1,1-trifluoro-2-hydroxy-4-methylpentan-2-yl)phenyl)acetamide] | ≤ 100 nM
11 | Cc1c(NC(=O)Cc2ccc(S(=O)(=O)NC3CC3)cc2)ccc(C(O)(C(F)(F)F)C(F)(F)F)c1F [Example 26, 2-(4-(N-cyclopropylsulfamoyl)phenyl)-N-(3-fluoro-4-(1,1,1,3,3,3-hexafluoro-2-hydroxypropan-2-yl)-2-methylphenyl)acetamide] | ≤ 1000 nM
12 | CNS(=O)(=O)c1cccc(CC(=O)Nc2ccc(C(O)(C(F)(F)F)C(F)(F)F)cc2)c1 [Example 19, N-(4-(1,1,1,3,3,3-hexafluoro-2-hydroxypropan-2-yl)phenyl)-2-(3-(N-methylsulfamoyl)phenyl)acetamide] | ≤ 1000 nM
13 | CCCCC(O)(c1ccc(NC(=O)Cc2ccc(S(=O)(=O)CC)cc2)cc1)C(F)(F)F (stereo not drawn) [Example 72, 2-(4-(ethylsulfonyl)phenyl)-N-(4-(1,1,1-trifluoro-2-hydroxyhexan-2-yl)phenyl)acetamide] | ≤ 1000 nM
14 | CCS(=O)(=O)c1ccc(CC(=O)Nc2ccc(C(O)(CC3CCCC3)C(F)(F)F)cc2)cc1 (stereo not drawn) [Example 86, N-(4-(3-cyclopentyl-1,1,1-trifluoro-2-hydroxypropan-2-yl)phenyl)-2-(4-(ethylsulfonyl)phenyl)acetamide] | ≤ 1000 nM
15 | CC(C)CCC(O)(c1ccc(NC(=O)Cc2ccc(S(=O)(=O)CC3CC3)cc2)cc1)C(F)(F)F (stereo not drawn) [Example 104, 2-(4-((cyclopropylmethyl)sulfonyl)phenyl)-N-(4-(1,1,1-trifluoro-2-hydroxy-5-methylhexan-2-yl)phenyl)acetamide] | ≤ 100 nM
16 | O=C(Cc1ccc(S(=O)(=O)CC2CC2)cc1)Nc1ccc(C(OCCC2CC2)(C(F)(F)F)C(F)(F)F)cc1 [Example 58, N-(4-(2-(2-cyclopropylethoxy)-1,1,1,3,3,3-hexafluoropropan-2-yl)phenyl)-2-(4-((cyclopropylmethyl)sulfonyl)phenyl)acetamide] | ≤ 1000 nM
17 | Nc1cc(C(O)(C(F)(F)F)C(F)(F)F)ccc1NC(=O)Cc1ccc(S(=O)(=O)CC2CC2)cc1 [Example 57, N-(2-amino-4-(1,1,1,3,3,3-hexafluoro-2-hydroxypropan-2-yl)phenyl)-2-(4-((cyclopropylmethyl)sulfonyl)phenyl)acetamide] | ≤ 1000 nM
18 | CCCOC(c1ccc(NC(=O)Cc2ccc(S(=O)(=O)CC)cc2)cc1)(C(F)(F)F)C(F)(F)F [Example 49, 2-(4-(ethylsulfonyl)phenyl)-N-(4-(1,1,1,3,3,3-hexafluoro-2-propoxypropan-2-yl)phenyl)acetamide] | ≤ 100 nM
19 | CCS(=O)(=O)c1ccc(CC(=O)Nc2c(C)cc(C(O)(C(F)(F)F)C(F)(F)F)cc2C)cc1 [Example 23, 2-(4-(ethylsulfonyl)phenyl)-N-(4-(1,1,1,3,3,3-hexafluoro-2-hydroxypropan-2-yl)-2,6-dimethylphenyl)acetamide] | ≤ 1000 nM
20 | O=C(Cc1ccc(S(=O)(=O)CC2CC2)cc1)Nc1ccc(C(O)(C(F)(F)F)C(F)(F)F)c(F)c1 [Example 45, 2-(4-((cyclopropylmethyl)sulfonyl)phenyl)-N-(3-fluoro-4-(1,1,1,3,3,3-hexafluoro-2-hydroxypropan-2-yl)phenyl)acetamide] | ≤ 10 nM
21 | O=C(Cc1ccc(S(=O)(=O)CC2CC2)cc1)Nc1ccc(C(O)(C2CC2)C2CC2)cc1 [Example 106, 2-(4-((cyclopropylmethyl)sulfonyl)phenyl)-N-(4-(dicyclopropyl(hydroxy)methyl)phenyl)acetamide] | ≤ 100 nM
22 | Cc1cc(C(O)(C(F)(F)F)C(F)(F)F)ccc1NC(=O)Cc1ccc(S(=O)(=O)NC2CC2)cc1 [Example 34, 2-(4-(N-cyclopropylsulfamoyl)phenyl)-N-(4-(1,1,1,3,3,3-hexafluoro-2-hydroxypropan-2-yl)-2-methylphenyl)acetamide] | ≤ 1000 nM
23 | Cc1cc(NC(=O)Cc2ccc(S(=O)(=O)CC3CC3)cc2)ccc1C(O)(C(F)(F)F)C(F)(F)F [Example 44, 2-(4-((cyclopropylmethyl)sulfonyl)phenyl)-N-(4-(1,1,1,3,3,3-hexafluoro-2-hydroxypropan-2-yl)-3-methylphenyl)acetamide] | ≤ 10 nM
24 | O=C(Cc1ccc(S(=O)(=O)CC2CC2)cc1)Nc1ccc(C(O)(C(F)(F)F)C(F)(F)F)cc1 [Example 37, 2-(4-((cyclopropylmethyl)sulfonyl)phenyl)-N-(4-(1,1,1,3,3,3-hexafluoro-2-hydroxypropan-2-yl)phenyl)acetamide] | ≤ 10 nM
